# Results as given in PubChem BioAssay (NCI).
#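 Cultured in 96-well plates, cells were exposed to test compound for 48 hours across five concentrations. TGI: total growth inhibition.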
# Legend:
# Assay in all cases: NCI anticancer screen, dose series, 48 h
# SF-295 CNS = tested on: SF-295 CNS
# ACHN renal = tested on: ACHN renal
# DMS 114 small cell lung = tested on: DMS 114 small cell lung
# CAKI-1 renal = tested on: CAKI-1 renal
# 786-0 renal = tested on: 786-0 renal
# SK-MEL-5 melanoma = tested on: SK-MEL-5 melanoma
# NCI-H23 lung = tested on: NCI-H23 lung
# NCI-H460 lung = tested on: NCI-H460 lung
# UACC-257 melanoma = tested on: UACC-257 melanoma
# SNB-78 CNS = tested on: SNB-78 CNS
# SN12C renal = tested on: SN12C renal
# KM12 colon = tested on: KM12 colon
# NCI-H522 lung = tested on: NCI-H522 lung
# HOP-62 NSCLC = tested on: HOP-62 NSCLC
# A498 renal = tested on: A498 renal
# RPMI-8226 leukemia = tested on: RPMI-8226 leukemia
# KM20L2 colon = tested on: KM20L2 colon
# MOLT-4 leukemia = tested on: MOLT-4 leukemia
# UO-31 renal = tested on: UO-31 renal
# MALME-3M melanoma = tested on: MALME-3M melanoma
# SK-MEL-28 melanoma = tested on: SK-MEL-28 melanoma
# M19-MEL melanoma = tested on: M19-MEL melanoma
# SNB-19 CNS = tested on: SNB-19 CNS
# HCC-2998 colon = tested on: HCC-2998 colon
# A549 NSCLC = tested on: A549 NSCLC
# OVCAR-5 ovarian = tested on: OVCAR-5 ovarian
# OVCAR-8 ovarian = tested on: OVCAR-8 ovarian
# EKVX NSCLC = tested on: EKVX NSCLC
# HOP-92 NSCLC = tested on: HOP-92 NSCLC
# HCT-116 colon = tested on: HCT-116 colon
# HCT-15 colon = tested on: HCT-15 colon
# SF-268 CNS = tested on: SF-268 CNS
# OVCAR-4 ovarian = tested on: OVCAR-4 ovarian
# SF-539 CNS = tested on: SF-539 CNS
# XF 498 CNS = tested on: XF 498 CNS
# SK-MEL-2 melanoma = tested on: SK-MEL-2 melanoma
# RXF 393 renal = tested on: RXF 393 renal
# SNB-75 CNS = tested on: SNB-75 CNS
# IGROV1 ovarian = tested on: IGROV1 ovarian
# K-562 leukemia = tested on: K-562 leukemia
# DLD-1 colon = tested on: DLD-1 colon
# M14 melanoma = tested on: M14 melanoma
# SK-OV-3 ovarian = tested on: SK-OV-3 ovarian
# CCRF-CEM leukemia = tested on: CCRF-CEM leukemia
# HT29 colon = tested on: HT29 colon
# SR leukemia = tested on: SR leukemia
# DMS 273 small cell lung = tested on: DMS 273 small cell lung
# UACC-62 melanoma = tested on: UACC-62 melanoma
# HOP-18 NSCLC = tested on: HOP-18 NSCLC
# SW-620 colon = tested on: SW-620 colon
# NCI-H226 lung = tested on: NCI-H226 lung
# U251 CNS = tested on: U251 CNS
# LXFL 529 NSCLC = tested on: LXFL 529 NSCLC
# HL-60(TB) leukemia = tested on: HL-60(TB) leukemia
# TK-10 renal = tested on: TK-10 renal
# OVCAR-3 ovarian = tested on: OVCAR-3 ovarian
# COLO 205 colon = tested on: COLO 205 colon
# RXF-631 renal = tested on: RXF-631 renal
# LOX IMVI melanoma = tested on: LOX IMVI melanoma
smiles,measurement,setting,value
CSC(=S)N(C)c1nc(=[N+](C)C)ss1,TGI,SF-295 CNS,> 100 µM
same,TGI,ACHN renal,> 100 µM
same,TGI,DMS 114 small cell lung,> 100 µM
same,TGI,CAKI-1 renal,> 100 µM
same,TGI,786-0 renal,> 100 µM
same,TGI,SK-MEL-5 melanoma,> 100 µM
same,TGI,NCI-H23 lung,> 100 µM
same,TGI,NCI-H460 lung,> 100 µM
same,TGI,UACC-257 melanoma,> 100 µM
same,TGI,SNB-78 CNS,> 100 µM
same,TGI,SN12C renal,> 100 µM
same,TGI,KM12 colon,> 100 µM
same,TGI,NCI-H522 lung,> 100 µM
same,TGI,HOP-62 NSCLC,> 100 µM
same,TGI,A498 renal,> 100 µM
same,TGI,RPMI-8226 leukemia,> 100 µM
same,TGI,KM20L2 colon,> 100 µM
same,TGI,MOLT-4 leukemia,> 100 µM
same,TGI,UO-31 renal,> 100 µM
same,TGI,MALME-3M melanoma,> 100 µM
same,TGI,SK-MEL-28 melanoma,> 100 µM
same,TGI,M19-MEL melanoma,> 100 µM
same,TGI,SNB-19 CNS,> 100 µM
same,TGI,HCC-2998 colon,> 100 µM
same,TGI,A549 NSCLC,> 100 µM
same,TGI,OVCAR-5 ovarian,> 100 µM
same,TGI,OVCAR-8 ovarian,> 100 µM
same,TGI,EKVX NSCLC,> 100 µM
same,TGI,HOP-92 NSCLC,> 100 µM
same,TGI,HCT-116 colon,> 100 µM
same,TGI,HCT-15 colon,> 100 µM
same,TGI,SF-268 CNS,> 100 µM
same,TGI,OVCAR-4 ovarian,> 100 µM
same,TGI,SF-539 CNS,> 100 µM
same,TGI,XF 498 CNS,> 100 µM
same,TGI,SK-MEL-2 melanoma,> 100 µM
same,TGI,RXF 393 renal,> 100 µM
same,TGI,SNB-75 CNS,> 100 µM
same,TGI,IGROV1 ovarian,> 100 µM
same,TGI,K-562 leukemia,> 100 µM
same,TGI,DLD-1 colon,> 100 µM
same,TGI,M14 melanoma,> 100 µM
same,TGI,SK-OV-3 ovarian,> 100 µM
same,TGI,CCRF-CEM leukemia,> 100 µM
same,TGI,HT29 colon,> 100 µM
same,TGI,SR leukemia,> 100 µM
same,TGI,DMS 273 small cell lung,> 100 µM
same,TGI,UACC-62 melanoma,> 100 µM
same,TGI,HOP-18 NSCLC,> 100 µM
same,TGI,SW-620 colon,> 100 µM
same,TGI,NCI-H226 lung,> 100 µM
same,TGI,U251 CNS,> 100 µM
same,TGI,LXFL 529 NSCLC,> 100 µM
same,TGI,HL-60(TB) leukemia,> 100 µM
same,TGI,TK-10 renal,> 100 µM
CCNC(=O)C(O)C1(O)CCC2[C@@H]3CCC4=CC(=O)C=C[C@]4(C)C3[C@@H](O)C[C@@]21C (stereo partly specified),TGI,SF-295 CNS,> 100 µM
same,TGI,ACHN renal,> 100 µM
same,TGI,DMS 114 small cell lung,> 100 µM
same,TGI,CAKI-1 renal,> 100 µM
same,TGI,786-0 renal,> 100 µM
same,TGI,NCI-H23 lung,> 100 µM
same,TGI,NCI-H460 lung,> 100 µM
same,TGI,UACC-257 melanoma,> 100 µM
same,TGI,SNB-78 CNS,> 100 µM
same,TGI,SN12C renal,> 100 µM
same,TGI,KM12 colon,> 100 µM
same,TGI,OVCAR-3 ovarian,> 100 µM
same,TGI,COLO 205 colon,> 100 µM
same,TGI,NCI-H522 lung,> 100 µM
same,TGI,RXF-631 renal,> 100 µM
same,TGI,HOP-62 NSCLC,> 100 µM
same,TGI,RPMI-8226 leukemia,> 100 µM
same,TGI,KM20L2 colon,> 100 µM
same,TGI,MOLT-4 leukemia,> 100 µM
same,TGI,UO-31 renal,> 100 µM
same,TGI,MALME-3M melanoma,> 100 µM
same,TGI,SK-MEL-28 melanoma,> 100 µM
same,TGI,M19-MEL melanoma,> 100 µM
same,TGI,SNB-19 CNS,> 100 µM
same,TGI,HCC-2998 colon,> 100 µM
same,TGI,A549 NSCLC,> 100 µM
same,TGI,OVCAR-5 ovarian,> 100 µM
same,TGI,OVCAR-8 ovarian,> 100 µM
same,TGI,EKVX NSCLC,> 100 µM
same,TGI,HCT-116 colon,> 100 µM
same,TGI,HCT-15 colon,> 100 µM
same,TGI,SF-268 CNS,> 79.9 µM
same,TGI,OVCAR-4 ovarian,> 100 µM
same,TGI,SF-539 CNS,> 100 µM
same,TGI,XF 498 CNS,> 100 µM
same,TGI,SK-MEL-2 melanoma,> 100 µM
same,TGI,RXF 393 renal,> 100 µM
same,TGI,SNB-75 CNS,> 100 µM
same,TGI,IGROV1 ovarian,> 100 µM
same,TGI,K-562 leukemia,> 100 µM
same,TGI,DLD-1 colon,> 100 µM
same,TGI,M14 melanoma,> 100 µM
same,TGI,SK-OV-3 ovarian,> 100 µM
same,TGI,CCRF-CEM leukemia,> 100 µM
same,TGI,HT29 colon,> 100 µM
same,TGI,SR leukemia,> 100 µM
same,TGI,DMS 273 small cell lung,> 100 µM
same,TGI,LOX IMVI melanoma,> 100 µM
same,TGI,UACC-62 melanoma,> 100 µM
same,TGI,HOP-18 NSCLC,> 100 µM
same,TGI,SW-620 colon,> 100 µM
same,TGI,NCI-H226 lung,> 100 µM
same,TGI,U251 CNS,> 100 µM
same,TGI,LXFL 529 NSCLC,> 100 µM
same,TGI,HL-60(TB) leukemia,> 79.4 µM
same,TGI,TK-10 renal,> 100 µM
